According to patent publication US12703851B2, “Cell culture methods” (The University of Massachusetts, priority 2019, dated 2026):
Entries after “also recorded” stand apart in the source; their conditions may differ.

What was measured:
Assay type in all cases: cell-based, Chinese hamster
[1] = test system: CHO K-1; test: Batch culture spiking of metabolites at end-of-culture concentration; conditions: spiked at end-of-culture concentration, 6 days batch culture
Protocol: CHO K-1 industrial standard batch process: NIH CHO-K1 cell line is cultured for 6 days, with 6 mM glutamine supplement on the inoculation day. The working volume is 30 mL in 125 mL shake flasks, and the inoculation cell density is 0.5 million cells/mL. The parameters for the shaking incubator are: 125 RPM, and 5% CO2.
Cells were exposed to the identified inhibitory metabolites of Table 1 at their end-of-culture concentration for 6 days in batch culture. […] All of the inhibitory metabolites decreased the antibody productivity (FIG. 4).

[2] = test system: CHO-K1 cell line; test: Fed-batch spiking test, IgG glycan profile by HPLC with Glycan Column; conditions: for impact on G1F formation: versus control group
Protocol: Industrial standard Fed-batch process: CHO-K1 cell line is cultured in corresponding media. Feed for 14 days, with 6 mM glutamine supplement on the inoculation day. The working volume is 30 mL in 125 mL shake flasks, and the inoculation cell density is 0.5 million cells/mL. The parameters for the shaking incubator are: 125 RPM, and 5% CO2. The feeding strategy is 10% corresponding feed everyday starting from day 3 to day 13.
In the standard industrial fed-batch process, cells were exposed to the inhibitors for a long period of time. This experiment mimics the therapeutic antibody production process, and spikes the inhibitors at their end-of-culture cellular concentration. ICA was confirmed as a known inhibitor and was used as a positive inhibitor control. Mixture condition excluded ICA and included AA, HICA, CMP, MSA, TRI, NAP. The process lasted for 14 days, and starting from day 6, the cell density under the inhibitor conditions were lower than the negative control batch.
IgG titer was measured by HPLC with a Protein A column. Product quality was quantified by the IgG glycan profile, which was measured by HPLC with a Glycan Column.

[3] = test system: CHO-S cells; test: Inhibitory metabolite accumulation in transiently transfected CHO-S subclones (LC-MS); design: dose or concentration left out as unconfirmed; conditions: 6 days
Protocol: FIG. 17A-G are graphs showing inhibitory metabolite accumulation in different subclones. Accumulation concentration of metabolites shown here: FIG. 17A, CMP; FIG. 17B, GMP; FIG. 17C, HICA, FIG. 17D, MSA, FIG. 17E, NAP, FIG. 17F, TAA; and FIG. 17G, TRI. The study was divided into […] unique subclone groups. […] A negative control was included where no plasmid transfection occurred. Each subclone was cultured for 6 days at which time cells and cell culture supernatant were collected. Cells for both the control and transfection subclones were derived from the same culture to eliminate variation in growth cycle and other culture conditions. Quantification of inhibitory metabolites accumulation was performed through LC-MS. Bars, mean±s.e.m.; n=3, *p<0.05, **p<0.01, ***p<0.001. Statistics by two-tailed t-test. LC-MS/MS method for metabolites profiling: Standards of metabolites were purchased from Sigma Aldrich (St. Louis, MO) and used for identification of wasted inhibitor metabolites. Operating parameters and samples preparation protocol were followed to a previously published protocol. Quantification of expression level of transfected gene of interest through qPCR. The expression level of seven different genes transfected into CHO-S cells were evaluated using relative quantification (RQ) compared to the calibrator. The study was divided into eight unique subclone groups. […] A negative control was included in the study where no genetic engineering work involving plasmid transfection occurred. Each subclone was cultured for 6 days. Cells for both the control and transfection subclones were derived from the same culture to eliminate variation in growth cycle and other culture conditions. […] Gene functionality study through metabolic pathway analysis. As mentioned previously, HICA is generated as the downstream metabolite from the metabolism of leucine in mammalian cells, of which cellular biochemical activities are regulated by ADH5 and BCAT1 enzymes. […] A negative control was included in the study where no genetic engineering work involving plasmid transfection occurred.

Structure (SMILES)	cell density versus control group [1]	impact on G1F formation [2]	decrease in accumulation versus control ([3]; Got1 transfected clone)	decrease in accumulation versus control ([3]; Slc35a1 transfected clone)	decrease in accumulation versus control ([3]; Bcat1 transfected clone)	decrease in accumulation versus control ([3]; Hadhb transfected clone)	also measured
O=C(O)C=C(CC(=O)O)C(=O)O [AA, aconitic acid]	lower cell density than the control group	higher impact on G1F formation					impact on G2F formation ([2]; Day 14, versus control group): totally inhibits the G2F formation; also recorded: G2F was not formed
O=C(O)c1c[nH]c2ccccc12 [ICA, indole-3-carboxylic acid, reference compound]	lower cell density than the control group	higher impact on G1F formation					
Nc1ccn([C@@H]2O[C@H](COP(=O)(O)O)[C@@H](O)[C@H]2O)c(=O)n1 [CMP, cytidine-5′-monophosphate]	lower cell density than the control group	higher impact on G1F formation	35.68%	50.63%			decrease in accumulation versus control ([3]; Hoga1 transfected clone): 33.59%
C[n+]1cccc(C(=O)[O-])c1 [TRI, trigonelline]			40.43%		42.96%	35.38%	decrease in accumulation versus control ([3]; Cat transfected clone): 27.8%
CC(C)CC(O)C(=O)O (stereo not drawn) [HICA, α-hydroxyisocaproic acid]		higher impact on G1F formation		73.51%	72.31%	27.05%	decrease in accumulation versus control ([3]; Adh5 transfected clone): 86.13%
CC(CC(=O)O)C(=O)O (centres unmarked) [MSA, methylsuccinic acid]		higher impact on G1F formation					
